Measurements published in ChEMBL document CHEMBL1149919, “Inhibition of human rhinovirus 3C protease by homophthalimides” (Bioorg Med Chem Lett, 1997).

Legend:
[1] = target: T1, Human rhinovirus A protease (Human rhinovirus sp.) (UniProt Q4U254); assay: Inhibition of Protease 3C of HRV-14 (human rhinovirus); design: concentration or dose not given beside the values; conditions: Rhinovirus B; concentration not given here
T1 sequence (whole entry): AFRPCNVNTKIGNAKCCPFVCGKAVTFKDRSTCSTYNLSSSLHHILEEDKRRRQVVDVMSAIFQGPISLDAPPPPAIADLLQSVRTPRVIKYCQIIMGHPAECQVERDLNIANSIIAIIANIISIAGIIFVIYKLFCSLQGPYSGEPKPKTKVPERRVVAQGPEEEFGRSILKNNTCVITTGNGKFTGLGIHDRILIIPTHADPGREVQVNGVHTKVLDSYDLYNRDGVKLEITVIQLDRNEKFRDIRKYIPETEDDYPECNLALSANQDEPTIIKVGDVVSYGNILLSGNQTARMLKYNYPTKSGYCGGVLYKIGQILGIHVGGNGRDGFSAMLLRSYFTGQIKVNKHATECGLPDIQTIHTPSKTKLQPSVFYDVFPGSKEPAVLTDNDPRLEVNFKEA

[2] = Cytotoxic effect against HeLa cell line measured by XTT assay; assay type: cell-based; conditions: human, HeLa cells; read-out: TC50 (the source's name)
[3] = tested on: HeLa; assay: Antiviral activity in a one-cycle viral replication assay against HRV-14 (human rhinovirus) infected HeLa cells; assay type: functional, cell-based
[4] = target: T2, Human rhinovirus A protease (Human rhinovirus sp., UniProt Q4U254); assay: The compound was tested for the inhibitory activity against HRV-14 (human rhinovirus) Protease 3C
T2 sequence (Q4U254 whole entry): T1 sequence (whole entry)

[5] = Therapeutic index was determined; conditions: read-out: TI

For CSCCN1C(=O)Cc2ccccc2C1=O, the inhibition [1] was 13%.
CN1C(=O)Cc2ccccc2C1=O gave an inhibition [1] of 14%.
CS(=O)(=O)CCN1C(=O)Cc2ccccc2C1=O showed an inhibition [1] of 6%.
CSCCCN1C(=O)Cc2ccccc2C1=O showed an inhibition [1] of 16%.
With CSCCCN1C(=O)c2ccccc2C(CC(=O)c2ccccc2)C1=O (stereo unspecified) the CC50 [2] was 63 µM, the IC50 [3] was greater than 10 µM and the inhibition [1] was 35%. The IC50 [4] was 131 µM.
Compound NC(=O)CCN1C(=O)Cc2ccccc2C1=O has an inhibition [1] of 11%.
CS(=O)(=O)CCCN1C(=O)c2ccccc2C(CC(=O)c2ccccc2)C1=O (stereo unspecified) showed a CC50 [2] greater than 100 µM, an IC50 [3] greater than 10 µM and an inhibition [1] of 70%. For the same compound, the IC50 [4] was 25 µM.
Work on O=C(O)CCN1C(=O)Cc2ccccc2C1=O yielded an inhibition [1] of 0%.
Work on CCOC(=O)CCN1C(=O)Cc2ccccc2C1=O yielded an inhibition [1] of 13%.
CCOC(=O)CCN1C(=O)c2ccccc2C(CC(=O)c2ccccc2)C1=O (stereo unspecified) showed a CC50 [2] greater than 100 µM, an IC50 [3] of 6 µM and an inhibition [1] of 71%. It also gave an IC50 [4] of 55.3 µM and a selectivity ratio [5] of 16.7.
Compound CS(=O)(=O)CCN1C(=O)c2ccccc2C(CC(=O)c2ccccc2)C1=O (stereo unspecified) has a CC50 [2] of 70.5 µM, an IC50 [3] of 8.5 µM and an inhibition [1] of 100%. It also gave an IC50 [4] of 22.1 µM and a selectivity ratio [5] of 8.3.
For CN1C(=O)c2ccccc2C(CC(=O)c2ccc(F)cc2)C1=O (stereo unspecified), the CC50 [2] was greater than 100 µM, the IC50 [3] was greater than 10 µM and the inhibition [1] was 72%. For the same compound, the IC50 [4] was 41.1 µM.
C[S+]([O-])CCN1C(=O)Cc2ccccc2C1=O (stereo unspecified) gave an inhibition [1] of 19%.
With CCOC(=O)CCN1C(=O)c2ccccc2C(C(C)=O)C1=O (stereo unspecified) the inhibition [1] was 8%.
